Results on eight compounds are retold here after BindingDB's records for doi:10.1021/jm049073+ (University of Innsbruck, 2005).

Molecules are shown by their SMILES.

For orientation: Ki means the equilibrium dissociation constant of an inhibitor or competing ligand from its target. Low readings indicate tighter binding, high ones weaker binding.

The experiment addresses Sigma non-opioid intracellular receptor 1 (Cavia porcellus). The experiment in a line: Affinity for sigma receptor type 1 of guinea pig using [3H]ifenprodil or (+)-[3H]pentazocine radioligand.
Compound `O=C(O)c1ccc(CCN2CCN(C/C=C/c3ccc(Cl)cc3)CC2)cc1` displayed a Ki of 680 nM.
The value for `CC1=C2C[C@H]3[C@@H](CC=C4C[C@@H](O)CC[C@@]43C)[C@@H]2CC[C@]12O[C@]1(C)C[C@H](C)CN[C@H]1[C@H]2C` [2',3,6,7a,15'-Pentamethyl-(1'S,2'R,2'R,3R,3aS,5'S,6S,7aR,10'S,11'S)-spiro[perhydrofuro[3,2-b]pyridine-2,14'-tetracyclo[8.7.0.02,7.011,16]heptadeca-7',15'-diene]-5'-ol] was greater than 100000 nM.
Turning to `CCCCCCCCCCCCC(C#N)(CCCN(C)CCc1ccccc1)c1ccccc1` (stereo not drawn) [2-[3-(Methyl-phenethyl-amino)-propyl]-2-phenyl-tetradecanenitrile], the Ki is 1 nM.
With `C[C@H]1CCC2[C@@H](C)[C@H]3[C@H](C[C@H]4[C@@H]5CC=C6C[C@@H](O)CC[C@]6(C)[C@H]5CC[C@]34C)N2C1` (stereo partly drawn) [4a,6a,7,10-tetramethyl-(2S,4aR,4bS,6aS,6bR,7S,10S,12aS,13aS,13bR)-2,3,4,4a,4b,5,6,6a,6b,7,7a,8,9,10,11,12a,13,13a,13b,14-icosahydro-1H-naphtho[2',1':4,5]indeno[1,2-b]indolizin-2-ol] the figure was 74 nM.
The value for `CC[C@H]1CC2C[C@H]3C4Nc5ccc(OC)cc5C4CCN(C2)C13` (stereo partly drawn) [17-ethyl-3,13-diazapentacyclo[13.3.1.02,10.04,9.013,18]nonadeca-4,6,8-trien-7-yl methyl ether] was 8550 nM.
With `CCCCCCCOc1ccccc1NC(=O)OC(C)CN(CC)CC` (stereo not drawn) [(2-Heptyloxy-phenyl)-carbamic acid 2-diethylamino-1-methyl-ethyl ester] the figure was 230 nM; with `CN(c1nc2ccccc2s1)C1CCN(CCCCOc2ccccc2)C1` (stereo not drawn) [Benzothiazol-2-yl-methyl-[1-(4-phenoxy-butyl)-pyrrolidin-3-yl]-amine], 1.3 nM.
`NC(=Nc1nc(-c2cc3ccccc3[nH]2)cs1)NCc1ccccc1` [N-Benzyl-N'-[4-(1H-indol-2-yl)-thiazol-2-yl]-guanidine]: the affinity, expressed as Ki, was 26700 nM.
